In patent US9045466B2, “Amidine compound or salt thereof” (priority 2011, dated 2015):
≈ marks a conversion by molar mass, not a printed value. Where a name gives a salt, the structure may show the parent alone.

System: Trichophyton rubrum NBRC 5467
Test: Fungal susceptibility test, broth microdilution method (MIC)
Format: cell-based
Details: NBRC5467, 96 h, RPMI/MOPS pH 7.0, 35° C. for 4 days, visual, lowest concentration with approximately 80% growth inhibition, read-out: MIC (μg/mL) T. rubrum NBRC5467
Procedure: The fungal susceptibility tests on test substances were conducted by the broth microdilution method equivalent to Clinical and Laboratory Standards Institute method. The medium used in the susceptibility tests was RPMI1640 adjusted to pH 7.0 with 0.165 mol/L morpholinepropanesulfonic acid (MOPS) and 50% sodium hydroxide (RPMI/MOPS). Each test substance was dissolved in DMSO and serially diluted in 2-fold increments with DMSO on a 96-well microplate. Then, the dilutions were dispensed by 1 μL to a 96-well microplate. Candida albicans TIMM 1623 cultured overnight at 35° C. in Sabouraud's agar medium was suspended in sterile saline. The number of cells was counted under a biological microscope, and the fungal suspension was diluted with RPMI/MOPS to prepare the inoculum solution (approximately 1×10^3 cells/mL). Alternatively, Candida albicans TIMM 1623 stored at −80° C. was diluted with RPMI/MOPS to prepare the inoculum solution (approximately 1×10^3 CFU/mL). Aspergillus fumigatus TIMM 0063 stored at 5° C. was diluted with RPMI/MOPS to prepare the inoculum solution (approximately 1×10^4 CFU/mL). Trichophyton rubrum NBRC 5467 stored at 5° C. or −80° C. was diluted with RPMI/MOPS to prepare the inoculum solution (approximately 2×10^3 CFU/mL). The 199 μL of inoculum solution was dispensed to each well to prepare the microplate containing the designated concentrations of test substance, medium and fungal cells. Candida albicans and Aspergillus fumigatus were cultured at 35° C. for 2 days. Trichophyton rubrum was cultured at 35° C. for 4 days. After the completion of culture, MIC was determined by visual observation. The MICs of Candida albicans and Aspergillus fumigatus were set to the lowest concentration at which approximately 50% growth inhibition was seen, when compared with a growth control without the addition of the test substance. The MIC of Trichophyton rubrum was set to the lowest concentration at which approximately 80% growth inhibition was seen, when compared with a growth control without the addition of the test substance.

Structure (SMILES) | MIC [µg/mL]
COC(=O)CN(C)/C=N/c1cc(C)c(Cc2nc(-c3ccc(C)cc3)cs2)cc1C [Example 7, Methyl N-{(E)-[(2,5-dimethyl-4-{[4-(4-methylphenyl)-1,3-thiazol-2-yl]methyl}phenyl)imino]methyl}-N-methylglycinate] | 0.25 (≈ 0.593 µM)
CCN(C)/C=N/c1cc(C)c(Cc2nc(-c3ccc(S(C)(=O)=O)cc3)cs2)cc1C [Example 23, N′-[2,5-Dimethyl-4-{4-[4-(methylsulfonyl)phenyl]-1,3-thiazol-2-yl}methyl)phenyl]-N-ethyl-N-methylimidoformamide dihydrochloride] | 0.0039
CCN(C)/C=N/c1cc(C)c(Cc2nc(OC(C)C)cs2)cc1C [Example 32, N′-(2,5-Dimethyl-4-{[4-(propan-2-yloxy)-1,3-thiazol-2-yl]methyl}phenyl)-N-ethyl-N-methylimidoformamide] | 0.0039 (≈ 0.0113 µM)
CCN(C)/C=N/c1cc(C)c(Cc2nc(C(O)c3ccc(Cl)cc3)cs2)cc1C (stereo not drawn) [Example 38, N′-[4-({4-[(4-Chlorophenyl)(hydroxy)methyl]-1,3-thiazol-2-yl}methyl)-2,5-dimethylphenyl]-N-ethyl-N-methylimidoformamide] | 0.0078 (≈ 0.0182 µM)
CCN(C)/C=N/c1cc(C)c(Cc2nc(-c3ccc(C(=O)NC)cc3)cs2)cc1C [Example 41, 4-{2-[4-({(E)-[Ethyl(methyl)amino]methylidene}amino)-2,5-dimethylbenzyl]-1,3-thiazol-4-yl}-N-methylbenzamide] | 0.0078 (≈ 0.0185 µM)
CCN(C)/C=N/c1cc(C)c(Cc2nc(C(=O)NC3CCCC3)cs2)cc1C [Example 74, N-Cyclopentyl-2-[4-({(E)-[ethyl(methyl)amino]methylidene}amino)-2,5-dimethylbenzyl]-1,3-thiazole-4-carboxamide] | 0.0156 (≈ 0.0391 µM)
CCN(C)/C=N/c1cc(C)c(Cc2nc(C3CCOCC3)cs2)cc1C [Example 81, N′-(2,5-Dimethyl-4-{[4-(tetrahydro-2H-pyran-4-yl)-1,3-thiazol-2-yl]methyl}phenyl)-N-ethyl-N-methylimidoformamide] | 0.0156 (≈ 0.042 µM)
CCN(C)/C=N/c1cc(C)c(Cc2nc(C(=O)NC(C)(C)CC)cs2)cc1C [Example 86, 2-[4-({(E)-[Ethyl(methyl)amino]methylidene}amino)-2,5-dimethylbenzyl]-N-(2-methylbutan-2-yl)-1,3-thiazole-4-carboxamide] | 0.0039 (≈ 0.00974 µM)
CCN(C)/C=N/c1cc(C)c(Cc2nc(C3CCC(C(=O)NC)CC3)cs2)cc1C (stereo not drawn) [Example 87, 4-{2-[4-({(E)-[Ethyl(methyl)amino]methylidene}amino)-2,5-dimethylbenzyl]-1,3-thiazol-4-yl}-N-methylcyclohexanecarboxamide] | 0.0156 (≈ 0.0366 µM)

Same assay, conditions: NBRC5467, 96 h, pH 7, read-out: MIC (μg/mL) T. rubrum NBRC5467

Structure (SMILES) | MIC [µg/mL]
CCN(C)/C=N/c1cc(C)c(Cc2nc(C(=O)c3ccccc3)cs2)cc1C [Example 19, N′-(2,5-Dimethyl-4-{[4-(phenylcarbonyl)-1,3-thiazol-2-yl]methyl}phenyl)-N-ethyl-N-methylimidoformamide dihydrochloride] | 0.0156
CCN(C)/C=N/c1cc(C)c(Cc2nc(-c3cncc(F)c3)cs2)cc1C [Example 21, N-Ethyl-N′-(4-{[4-(5-fluoropyridin-3-yl)-1,3-thiazol-2-yl]methyl}-2,5-dimethylphenyl)-N-methylimidoformamide trihydrochloride] | 0.0156
CCN(C)/C=N/c1cc(C)c(Cc2nc(-c3ccccc3)c(C(=O)c3ccccc3)s2)cc1C [Example 25, N′-(2,5-Dimethyl-4-{[4-phenyl-5-(phenylcarbonyl)-1,3-thiazol-2-yl]methyl}phenyl)-N-ethyl-N-methylimidoformamide dihydrochloride] | 0.0313
CCN(C)/C=N/c1cc(C)c(Cc2nc(CS(=O)(=O)c3ccc(C)cc3)cs2)cc1C [Example 30, N′-{2,5-Dimethyl-4-[(4-{[(4-methylphenyl)sulfonyl]methyl}-1,3-thiazol-2-yl)methyl]phenyl}-N-ethyl-N-methylimidoformamide dihydrochloride] | 0.0625
CCOC(=O)Nc1csc(Cc2cc(C)c(/N=C/N(C)CC)cc2C)n1 [Example 31, Ethyl {2-[4-({(E)-[ethyl(methyl)amino]methylidene}amino)-2,5-dimethylbenzyl]-1,3-thiazol-4-yl}carbamate dihydrochloride] | 0.0078
CCN(C)/C=N/c1cc(C)c(Cc2nc(COC(C)=O)cs2)cc1C [Example 34, {2-[4-({(E)-[Ethyl(methyl)amino]methylidene}amino)-2,5-dimethylbenzyl]-1,3-thiazol-4-yl}methyl acetate dihydrochloride] | 0.0313
CCOC(=O)c1csc(Cc2cc(C)c(/N=C/N(C)CC)cc2C)n1 [Example 35, Ethyl 2-[4-({(E)-[ethyl(methyl)amino]methylidene}amino)-2,5-dimethylbenzyl]-1,3-thiazole-4-carboxylate] | 0.0313 (≈ 0.0871 µM)
CCN(C)/C=N/c1cc(C)c(Cc2nc(-c3cnc(C)cn3)cs2)cc1C [Example 37, N′-(2,5-Dimethyl-4-{[4-(5-methylpyrazin-2-yl)-1,3-thiazol-2-yl]methyl}phenyl)-N-ethyl-N-methylimidoformamide dihydrochloride] | 0.0039
CCN(C)/C=N/c1cc(C)c(Cc2nc(C(=O)NCc3ccccc3)cs2)cc1C [Example 44, N-Benzyl-2-[4-({(E)-[ethyl(methyl)amino]methylidene}amino)-2,5-dimethylbenzyl]-1,3-thiazole-4-carboxamide dihydrochloride] | 0.0625
CCN(C)/C=N/c1cc(C)c(Cc2nc(C3CC3)cs2)cc1C [Example 45, N′-{4-[(4-Cyclopropyl-1,3-thiazol-2-yl)methyl]-2,5-dimethylphenyl}-N-ethyl-N-methylimidoformamide dihydrochloride] | 0.0313
CCN(C)/C=N/c1cc(C)c(Cc2nc(-c3ccc(C)cc3)cs2)nc1C [Example 47, N′-(2,5-Dimethyl-6-{[4-(4-methylphenyl)-1,3-thiazol-2-yl]methyl}pyridin-3-yl)-N-ethyl-N-methylimidoformamide dihydrochloride] | 0.0313
CCN(C)/C=N/c1ccc(Cc2nc(-c3ccc(Cl)cc3)cs2)cc1 [Example 51, N′-(4-{[4-(4-Chlorophenyl)-1,3-thiazol-2-yl]methyl}phenyl)-N-ethyl-N-methylimidoformamide hydrochloride] | 0.25
CCN(C)/C=N/c1cc(C)c(Cc2nc(COC(C)C)cs2)cc1C [Example 63, N′-[2,5-Dimethyl-4-({4-[(propan-2-yloxy)methyl]-1,3-thiazol-2-yl}methyl)phenyl]-N-ethyl-N-methylimidoformamide dihydrochloride] | 0.0156
CCN(C)/C=N/c1cc(C)c(Cc2nc(-c3ccn(C)c(=O)c3)cs2)cc1C [Example 67, N′-(2,5-Dimethyl-4-{[4-(1-methyl-2-oxo-1,2-dihydropyridin-4-yl)-1,3-thiazol-2-yl]methyl}phenyl)-N-ethyl-N-methylimidoformamide dihydrochloride] | 0.0625
CCN(C)/C=N/c1cc(C)c(Cc2nc(C(=O)N(C)C3CCCCC3)cs2)cc1C [Example 71, N-Cyclohexyl-2-[4-({(E)-[ethyl(methyl)amino]methylidene}amino)-2,5-dimethylbenzyl]-N-methyl-1,3-thiazole-4-carboxamide hydrochloride] | 0.0156
